{"source": "patent EP0745595A1", "about": "“3-(3-Aryloxyphenyl)-1-(substituted methyl)-s-triazine-2,4,6-oxo or thiotrione herbicidal agents” (American Cyanamid Company, priority 1995, dated 1996);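 on ORYSAT herbicidal rating (rice tolerance): applied to flooded soil surface three days after transplanting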", "assay_type_in_all_cases": "in vivo", "key": {"ZEA MAYS L.": {"system": "ZEA MAYS L.", "assay": "Postemergence herbicidal evaluation, ZEAMX (Corn, Field)", "settings": "for ZEAMX, herbicide rating (0-9): crop, rated four to five weeks after treatment, averaged", "method_in_brief": "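Corn seedlings were raised in jiffy flats for roughly two weeks, then sprayed postemergence with the test material dispersed in 50/50 acetone/water containing 0.5% TWEEN®20 surfactant, using a nozzle at 40 psi. Plants were kept on greenhouse benches under standard care and visually rated on a 0-9 scale four to five weeks after treatment.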"}, "CHENOPODIUM ALBUM, L. [1]": {"system": "CHENOPODIUM ALBUM, L.", "assay": "Postemergence herbicidal evaluation, CHEAL (Lambsquarters, Common)", "method_in_brief": "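Seedlings of common lambsquarters (Chenopodium album) were raised in jiffy flats for roughly two weeks, then sprayed postemergence through a nozzle at 40 psi with test compound dispersed in 50/50 acetone/water containing 0.5% TWEEN®20 surfactant. Plants were kept on greenhouse benches under standard care and rated visually on a 0-9 scale versus controls.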"}, "[2]": {"system": "ECHINOCHLOA CRUS-GALLI, (L) BEAU", "assay": "Postemergence herbicidal evaluation, ECHCG (Barnyardgrass)", "parameters": "key to ECHCG rating / Herbicidal effect rating, ECHCG / ECHCG: 0-9 visual rating scale vs untreated control", "method_in_brief": "(§1)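 Visual 0–9 scores reflect stand, vigor, malformation, size, chlorosis and overall appearance relative to control, taken 4–5 weeks after spraying two-week-old seedlings with about 0.125–0.500 kg/ha compound in acetone/water/TWEEN 20.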"}, "[3]": {"system": "ORYZA SATIVA, L. TEBONNET", "assay": "Rice tolerance to post-transplant applications under flooded paddy conditions, ORYSAT (Rice, Tebonnet)", "settings": "for ORYSAT herbicidal rating (rice tolerance): post-transplant rice, rated three to four weeks after treatment; for ORYSAT: post-transplanted rice", "method_in_brief": "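Post-transplant paddy test: compound applied 3 d after transplanting to flooded soil (1.5-3 cm water), ~0.063-0.5 kg/ha a.i., 50/50 aq/acetone. Silt loam, 2 × 10-d seedlings/pot. Greenhouse 3-4 wk, visual 0-9 score vs control.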"}, "[4]": {"system": "SETARIA VIRIDIS, (L) BEAU", "assay": "Postemergence herbicidal evaluation, SETVI (Foxtail, Green)", "parameters": "key to SETVI rating / Herbicidal effect rating, SETVI / SETVI: 0-9 visual rating scale vs untreated control", "settings": "for SETVI, herbicide rating (0-9): rated four to five weeks after treatment, averaged", "method_in_brief": "as §1"}, "GALIUM APARINE": {"system": "GALIUM APARINE", "assay": "Postemergence herbicidal evaluation, GALAP (Galium)", "parameters": "key to GALAP rating / Herbicidal effect rating, GALAP / GALAP: 0-9 visual rating scale vs untreated control", "method_in_brief": "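Galium (GALAP) seedlings were raised in jiffy flats for about two weeks, then sprayed with test compounds dispersed in 50/50 acetone/water containing 0.5% TWEEN®20, delivered through a nozzle at 40 psi. Plants were kept on greenhouse benches and visually rated 0-9 against a control four to five weeks later; repeat tests were averaged.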"}, "CHENOPODIUM ALBUM, L. [5]": {"system": "CHENOPODIUM ALBUM, L.", "assay": "Preemergence herbicidal evaluation, CHEAL (Lambsquarters, Common)", "settings": "four to five weeks after treatment", "method_in_brief": "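Injury scored visually (0–9; stand, vigor, malformation, size, chlorosis) versus untreated control, four to five weeks post-treatment. Application: aqueous acetone spray onto freshly planted soil cups, equivalent to about 0.125 to 0.50 kg/ha, plants then kept under standard greenhouse care.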"}, "[6]": {"system": "AMBROSIA ARTEMISIIFOLIA, L.", "assay": "Postemergence herbicidal evaluation, AMBEL (Ragweed, Common)", "method_in_brief": "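Common ragweed (Ambrosia artemisiifolia) seedlings were raised in jiffy flats for roughly two weeks, then sprayed postemergence through a nozzle at 40 psi with the test compound dispersed in 50/50 acetone/water carrying 0.5% TWEEN®20. The plants were kept on greenhouse benches under conventional care. Four to five weeks later, injury was rated visually on a 0-9 scale, and repeat tests were averaged.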"}, "IPOMOEA SPP.": {"system": "IPOMOEA SPP.", "assay": "Postemergence herbicidal evaluation, IPOSS (Morningglory spp.)", "settings": "for IPOSS, herbicide rating (0-9): rated four to five weeks after treatment, averaged", "method_in_brief": "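Seedlings of morningglory (Ipomoea spp.) were raised in jiffy flats for roughly two weeks. They were then sprayed postemergence through a nozzle at 40 psi with test compound dispersed in 50/50 acetone/water containing 0.5% TWEEN®20 surfactant. Plants were kept on greenhouse benches under standard care and visually rated 0-9 against controls four to five weeks after treatment.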"}, "[7]": {"system": "ABUTILON THEOPHRASTI, MEDIC.", "assay": "Postemergence herbicidal evaluation, ABUTH (Velvetleaf)", "settings": "for ABUTH, herbicide rating (0-9): rated four to five weeks after treatment, averaged", "method_in_brief": "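Velvetleaf (Abutilon theophrasti) seedlings were raised in jiffy flats for about two weeks and then sprayed postemergence. The test compound was dispersed in a 50/50 acetone/water mixture containing 0.5% TWEEN®20 and applied through a nozzle operating at 40 psi. Plants were kept on greenhouse benches and rated 0-9 four to five weeks after treatment.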"}, "[8]": {"system": "TRITICUM AESTIVUM, CV. APOLLO", "assay": "Postemergence herbicidal evaluation, TRZAWO (Wheat, Winter, CV. APOLLO)", "method_in_brief": "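Wheat seedlings, raised in jiffy flats for roughly two weeks, were sprayed postemergence with test compound dispersed in a 50/50 acetone/water mixture containing 0.5% TWEEN®20 surfactant, delivered through a nozzle at 40 psi. Plants were then kept on greenhouse benches under conventional care. Four to five weeks after treatment they were rated visually on a 0-9 scale against an untreated control, and ratings from repeated tests were averaged.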"}}, "data": [{"molecule": "COC(=O)Cn1c(=O)n(C)c(=O)n(-c2cc(Oc3c(F)cc(C(F)(F)F)cc3Cl)ccc2F)c1=O", "note": "[Compound 4, Methyl 3-{5-[(2-chloro-α,α,α,6-tetrafluoro-p-tolyl)oxy]-2-fluorophenyl}tetrahydro-5-methyl-2,4,6-trioxo-s-triazine-1(2H)-acetate]", "values": [{"measurement": "Herbicidal effect rating, ZEAMX", "setting": "ZEA MAYS L.; 0.031 kg/ha", "value": 8.1}, {"measurement": "Herbicidal effect rating, ZEAMX", "setting": "ZEA MAYS L.; 0.063 kg/ha", "value": 8.7}, {"measurement": "Herbicidal effect rating, ZEAMX", "setting": "ZEA MAYS L.; 0.125 kg/ha", "value": 8.9}, {"measurement": "Herbicidal effect rating, ZEAMX", "setting": "ZEA MAYS L.; 0.250 kg/ha", "value": 8.9}, {"measurement": "ZEAMX, herbicide rating (0-9)", "setting": "ZEA MAYS L.; Rate 0.125 kg/ha", "value": 8.8}, {"measurement": "ZEAMX, herbicide rating (0-9)", "setting": "ZEA MAYS L.; Rate 0.250 kg/ha", "value": 8.8}, {"measurement": "ZEAMX, herbicide rating (0-9)", "setting": "ZEA MAYS L.; Rate 0.500 kg/ha", "value": 8.8}, {"measurement": "Herbicidal effect rating, CHEAL", "setting": "CHENOPODIUM ALBUM, L. [1]; 0.031 kg/ha", "value": 7.9}, {"measurement": "Herbicidal effect rating, CHEAL", "setting": "CHENOPODIUM ALBUM, L. [1]; 0.063 kg/ha", "value": 8.8}, {"measurement": "Herbicidal effect rating, CHEAL", "setting": "CHENOPODIUM ALBUM, L. [1]; 0.125 kg/ha", "value": 8.9}, {"measurement": "Herbicidal effect rating, CHEAL", "setting": "CHENOPODIUM ALBUM, L. [1]; 0.250 kg/ha", "value": 9.0}, {"measurement": "Herbicidal effect rating, ECHCG", "setting": "[2]; 0.031 kg/ha", "value": 3.8}, {"measurement": "Herbicidal effect rating, ECHCG", "setting": "[2]; 0.063 kg/ha", "value": 6.0}, {"measurement": "Herbicidal effect rating, ECHCG", "setting": "[2]; 0.125 kg/ha", "value": 8.2}, {"measurement": "Herbicidal effect rating, ECHCG", "setting": "[2]; 0.250 kg/ha", "value": 8.9}, {"measurement": "ORYSAT herbicidal rating (rice tolerance)", "setting": "[3]; Rate 0.063 kg/ha", "value": 2.0}, {"measurement": "ORYSAT herbicidal rating (rice tolerance)", "setting": "[3]; Rate 0.125 kg/ha", "value": 3.2}, {"measurement": "ORYSAT herbicidal rating (rice tolerance)", "setting": "[3]; Rate 0.250 kg/ha", "value": 3.8}, {"measurement": "ORYSAT herbicidal rating (rice tolerance)", "setting": "[3]; Rate 0.500 kg/ha", "value": 4.7}, {"measurement": "ORYSAT", "setting": "[3]; Rate 0.031 kg/ha", "value": 1.6}, {"measurement": "ORYSAT", "setting": "[3]; Rate 0.063 kg/ha", "value": 2.1}, {"measurement": "ORYSAT", "setting": "[3]; Rate 0.125 kg/ha", "value": 3.6}, {"measurement": "ORYSAT", "setting": "[3]; Rate 0.250 kg/ha", "value": 3.7}, {"measurement": "Herbicidal effect rating, SETVI", "setting": "[4]; 0.031 kg/ha", "value": 6.9}, {"measurement": "Herbicidal effect rating, SETVI", "setting": "[4]; 0.063 kg/ha", "value": 8.6}, {"measurement": "Herbicidal effect rating, SETVI", "setting": "[4]; 0.125 kg/ha", "value": 9.0}, {"measurement": "Herbicidal effect rating, SETVI", "setting": "[4]; 0.250 kg/ha", "value": 9.0}, {"measurement": "SETVI, herbicide rating (0-9)", "setting": "[4]; Rate 0.125 kg/ha", "value": 9.0}, {"measurement": "SETVI, herbicide rating (0-9)", "setting": "[4]; Rate 0.250 kg/ha", "value": 9.0}, {"measurement": "SETVI, herbicide rating (0-9)", "setting": "[4]; Rate 0.500 kg/ha", "value": 9.0}, {"measurement": "Herbicidal effect rating, GALAP", "setting": "GALIUM APARINE; 0.031 kg/ha", "value": 7.3}, {"measurement": "Herbicidal effect rating, GALAP", "setting": "GALIUM APARINE; 0.063 kg/ha", "value": 8.4}, {"measurement": "Herbicidal effect rating, GALAP", "setting": "GALIUM APARINE; 0.125 kg/ha", "value": 8.8}, {"measurement": "Herbicidal effect rating, GALAP", "setting": "GALIUM APARINE; 0.250 kg/ha", "value": 8.1}, {"measurement": "CHEAL rating", "setting": "CHENOPODIUM ALBUM, L. [5]; Rate 0.125 kg/ha", "value": 9.0}, {"measurement": "CHEAL rating", "setting": "CHENOPODIUM ALBUM, L. [5]; Rate 0.250 kg/ha", "value": 9.0}, {"measurement": "CHEAL rating", "setting": "CHENOPODIUM ALBUM, L. [5]; Rate 0.500 kg/ha", "value": 9.0}, {"measurement": "Herbicidal effect rating, AMBEL", "setting": "[6]; 0.031 kg/ha", "value": 7.2}, {"measurement": "Herbicidal effect rating, AMBEL", "setting": "[6]; 0.063 kg/ha", "value": 8.0}, {"measurement": "Herbicidal effect rating, AMBEL", "setting": "[6]; 0.125 kg/ha", "value": 8.5}, {"measurement": "Herbicidal effect rating, AMBEL", "setting": "[6]; 0.250 kg/ha", "value": 8.9}, {"measurement": "Herbicidal effect rating, IPOSS", "setting": "IPOMOEA SPP.; 0.031 kg/ha", "value": 8.9}, {"measurement": "Herbicidal effect rating, IPOSS", "setting": "IPOMOEA SPP.; 0.063 kg/ha", "value": 8.9}, {"measurement": "Herbicidal effect rating, IPOSS", "setting": "IPOMOEA SPP.; 0.125 kg/ha", "value": 9.0}, {"measurement": "Herbicidal effect rating, IPOSS", "setting": "IPOMOEA SPP.; 0.250 kg/ha", "value": 9.0}, {"measurement": "IPOSS, herbicide rating (0-9)", "setting": "IPOMOEA SPP.; Rate 0.125 kg/ha", "value": 9.0}, {"measurement": "IPOSS, herbicide rating (0-9)", "setting": "IPOMOEA SPP.; Rate 0.250 kg/ha", "value": 9.0}, {"measurement": "IPOSS, herbicide rating (0-9)", "setting": "IPOMOEA SPP.; Rate 0.500 kg/ha", "value": 9.0}, {"measurement": "Herbicidal effect rating, ABUTH", "setting": "[7]; 0.031 kg/ha", "value": 8.9}, {"measurement": "Herbicidal effect rating, ABUTH", "setting": "[7]; 0.063 kg/ha", "value": 8.9}, {"measurement": "Herbicidal effect rating, ABUTH", "setting": "[7]; 0.125 kg/ha", "value": 9.0}, {"measurement": "Herbicidal effect rating, ABUTH", "setting": "[7]; 0.250 kg/ha", "value": 9.0}, {"measurement": "ABUTH, herbicide rating (0-9)", "setting": "[7]; Rate 0.125 kg/ha", "value": 9.0}, {"measurement": "ABUTH, herbicide rating (0-9)", "setting": "[7]; Rate 0.250 kg/ha", "value": 9.0}, {"measurement": "ABUTH, herbicide rating (0-9)", "setting": "[7]; Rate 0.500 kg/ha", "value": 9.0}, {"measurement": "Herbicidal effect rating, TRZAWO", "setting": "[8]; 0.031 kg/ha", "value": 6.3}, {"measurement": "Herbicidal effect rating, TRZAWO", "setting": "[8]; 0.063 kg/ha", "value": 7.3}, {"measurement": "Herbicidal effect rating, TRZAWO", "setting": "[8]; 0.125 kg/ha", "value": 8.1}, {"measurement": "Herbicidal effect rating, TRZAWO", "setting": "[8]; 0.250 kg/ha", "value": 8.2}]}]}
